Measurements published in US5364848A, “Substituted cephalosporin sulfones as anti-inflammatory and antidegenerative agents” (Merck & Co., Inc., priority 1992, dated 1994).
Values after ≈ are worked out from the molar mass of the structure shown. Like-named read-outs stand apart in the source and are kept apart here.

How the values were obtained:
[1] = system: PG synthesis; settings: background statement; cited from earlier work
[2] = system: elastase both from the pancreas and the PMN; settings: background statement; cited from earlier work
[3] = molecular target: T1, Human Polymorphonuclear Leukocyte Elastase (Homo sapiens, UniProt P08246); assay: biochemical
T1 sequence (P08246 30-247 limits assumed): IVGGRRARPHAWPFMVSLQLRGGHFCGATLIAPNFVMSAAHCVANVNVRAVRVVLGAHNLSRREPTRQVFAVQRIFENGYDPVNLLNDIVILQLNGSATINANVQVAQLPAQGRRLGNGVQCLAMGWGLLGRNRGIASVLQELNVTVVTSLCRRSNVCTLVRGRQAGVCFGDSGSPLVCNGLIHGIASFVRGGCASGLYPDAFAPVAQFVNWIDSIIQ
Procedure: Protocol--Enzyme Assays for the Inhibition of Human Polymorphonuclear Leukocyte Elastase Via Hydrolysis of N-t-Boc-alanyl-alanyl-prolylalanine-p-nitroanilide Reagents:
0.05M TES (N-tris[hydroxymethyl]methyl-2-amino-ethanesulfonic acid) Buffer, pH 7.5.
0.2 mMN-t-Boc-alanyl -alanyl -prolyl-alanine-p-nitroanilide (Boc-AAPAN).
To prepare substrate, the solid (m.w. 550) was first dissolved in 10.0 ml DMSO. Buffer at pH 7.5 was then added to a final volume of 100 ml.
Crude extract of human polymorphonuclear leukocytes (PMN) containing elastase activity.
Inhibitors (cephalosporin sulfone esters) to be tested dissolved in DMSO just before use.
To 1.0 ml of 0.2 mM Boc-AAPAN in a cuvette, 0.01-0.1 ml of DMSO with or without inhibitor was added. After mixing, a measurement was taken at 410 mμ to detect any spontaneous hydrolysis due to presence of test compound. 0.05 Milliliters of PMN extract was then added and the ΔOD/min at 410 mμ was measured and recorded. Beckman model 35 spectrophotometer was used.
The elastase activity in the crude PMN extract may vary from one preparation to another. A control of each new batch is run, and the volume added in the assay procedure is adjusted according to activity.

[4] = Table II, 50% inhibition of the enzyme activity 2 minutes after zero time, crude PMN extract, pH 7.5, 0.2 mM Boc-AAPAN, read-out: ED50 (the source's name) (converted)

| Compound | IC50 [3, 4] | also measured |
| --- | --- | --- |
| CCCCC1C(=O)N(c2ccccc2)N(c2ccccc2)C1=O [phenylbutazone] | – | inhibition of PG synthesis [1]: inhibited |
| COc1ccc2c(c1)c(CC(=O)O)c(C)n2C(=O)c1ccc(Cl)cc1 [indomethacin] | – | inhibition of PG synthesis [1]: inhibited |
| α1 -Antitrypsin: a glycoprotein contained in human serum that has a wide inhibitory spectrum | – | inhibitory spectrum [2]: wide inhibitory spectrum covering, among other enzymes, elastase both from the pancreas and the PMN |
| CC(=O)OCC1=C(C(=O)OC(C)(C)C)N2C(=O)[C@H](Cl)[C@H]2S(=O)(=O)C1 [R1=Cl, M=CH2OCOCH3, B=OtBu, Q=H, t-Butyl 3-acetyloxymethyl-7α-chloro-8-oxo-5-thia-1-azabicyclo[4.2.0]oct-2-ene-2-carboxylate-5.5-dioxide] | – | IC50 [3]: 52.7 nM |
| COC1C(=O)N2C(C(=O)N(C)C)=C(COC(C)=O)CS(=O)(=O)C12 (stereo not shown) [R1=OCH3, M=CH2OCOCH3, B=N(CH3)2, Q=H] | 1730 nM | – |
| COC(=O)C1=C(COC(C)=O)CS(=O)(=O)C2C(OC=O)C(=O)N12 (stereo not shown) [R1=drawing 37, M=CH2OCOCH3, B=OCH3, Q=H] | 288 nM | – |
| COC1C(=O)N2C(C(=O)OC(C)(C)C)=C(CO)CS(=O)(=O)C12 (stereo not shown) [R1=OCH3, M=CH2OH, B=OtBu, Q=H] | 2400 nM | – |
| CCC1C(=O)N2C(C(=O)OC(C)(C)C)=C(COC(=O)C(N)c3ccccc3)CS(=O)(=O)C12 (stereo not shown) [R1=C2H5, M=drawing 32, B=OtBu, Q=H] | 861 nM | – |
| CCC1C(=O)N2C(C(=O)OCc3ccccc3)=C(COC(C)=O)CS(=O)(=O)C12 (stereo not shown) [R1=C2H5, M=CH2OCOCH3, B=OCH2.phi., Q=H] | 982 nM | – |
| COC1C(=O)N2C(C(=O)OC(C)(C)C)=C(CS(C)(=O)=O)CS(=O)(=O)C12 (stereo not shown) [R1=OCH3, M=CH2SO2CH3, B=OtBu, Q=H] | 253 nM | – |
| CO[C@H]1C(=O)N2C(C(=O)OC(C)(C)C)=C(COC(=O)NCC(=O)O)CS(=O)(=O)C12 (stereo partly drawn) [R1=OCH3, M=CH2OCONHCH2COOH, B=OtBu, Q=H, t-Butyl 3-hydroxycarbonylmethylaminocarbonyloxymethyl-7α-methoxy-8-oxo-5-thia-1-azabicyclo[4.2.0]oct-2-ene-2-carboxylate-5,5-dioxide] | 92.1 nM | – |
| CO[C@H]1C(=O)N2C(C(=O)OC(C)(C)C)=C(C)CS(=O)(=O)C12 (stereo partly drawn) [R1=OCH3, M=CH3, B=OtBu, Q=H, t-Butyl 3-methyl-7α-methoxy-8-oxo-5-thia-1-azabicyclo [4.2.0]oct-2-ene-2-carboxylate-5,5-dioxide] | – | ED50 ([3]; Table II, 50% inhibition of the enzyme activity 2 minutes after zero time, crude PMN extract, pH 7.5, 0.2 mM Boc-AAPAN): 1.0 µg/mL (≈ 3.15 µM) |
| COC(=O)C1=C(Cl)CS(=O)(=O)C2[C@@H](OC)C(=O)N12 (stereo partly drawn) [R1=OCH3, M=Cl, B=OCH3, Q=H, Methyl-3-chloro-7α-methoxy-8-oxo-5-thia-1-azabicyclo[4.2.0]oct-2-ene-2-carboxylate-5,5-dioxide] | 676 nM | – |
